How the values were obtained:
Experiment in all cases: Kinase panel study
Type in all cases: biochemical
Settings in all cases: read-out: Percentage of inhibition; for inhibition at 1 µM: 1000nM; for inhibition at 10 µM: 10000nM
[1] = biological target: T1, AURKA (Aurora A) (Homo sapiens, UniProt O14965)
T1 construct: purchased Thermo Fisher Scientific
T1 sequence (O14965 1-403): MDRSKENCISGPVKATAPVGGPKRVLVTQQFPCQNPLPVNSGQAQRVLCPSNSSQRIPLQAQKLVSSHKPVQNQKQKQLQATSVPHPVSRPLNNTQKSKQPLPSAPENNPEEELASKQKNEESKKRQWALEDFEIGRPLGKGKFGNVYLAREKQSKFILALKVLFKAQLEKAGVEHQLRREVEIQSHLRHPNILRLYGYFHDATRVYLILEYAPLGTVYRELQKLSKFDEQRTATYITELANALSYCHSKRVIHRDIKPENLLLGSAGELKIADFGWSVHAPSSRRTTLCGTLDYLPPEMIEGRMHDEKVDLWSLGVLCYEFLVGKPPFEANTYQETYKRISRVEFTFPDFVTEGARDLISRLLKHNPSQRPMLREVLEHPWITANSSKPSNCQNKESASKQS
Method in brief: (§1)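 Single-point inhibition data at 10 µM or 1 µM compound are shown. They were generated in ZLyte- or Adapta-format biochemical assays performed externally under standard conditions.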

[2] = biological target: T2, PRKCZ (PKC zeta) (Homo sapiens, UniProt Q05513)
T2 construct: purchased Thermo Fisher Scientific
T2 sequence (Q05513 1-592): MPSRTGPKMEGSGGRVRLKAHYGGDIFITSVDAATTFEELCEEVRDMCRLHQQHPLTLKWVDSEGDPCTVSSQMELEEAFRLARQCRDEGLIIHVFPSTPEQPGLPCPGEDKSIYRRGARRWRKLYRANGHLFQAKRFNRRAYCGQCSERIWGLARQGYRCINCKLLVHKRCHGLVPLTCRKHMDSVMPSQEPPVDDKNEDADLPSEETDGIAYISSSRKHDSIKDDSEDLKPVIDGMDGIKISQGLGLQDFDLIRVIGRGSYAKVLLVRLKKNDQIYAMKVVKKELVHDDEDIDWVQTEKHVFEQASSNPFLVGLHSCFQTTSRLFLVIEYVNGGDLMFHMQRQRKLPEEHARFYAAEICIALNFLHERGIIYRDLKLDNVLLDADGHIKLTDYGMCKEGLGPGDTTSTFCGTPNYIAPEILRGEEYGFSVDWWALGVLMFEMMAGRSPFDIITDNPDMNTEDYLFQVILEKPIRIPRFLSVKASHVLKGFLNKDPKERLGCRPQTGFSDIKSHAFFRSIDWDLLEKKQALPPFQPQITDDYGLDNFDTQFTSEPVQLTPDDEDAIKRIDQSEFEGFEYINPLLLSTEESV
Method in brief: as §1

[3] = biological target: T3, ABL2 (Arg) (Homo sapiens, UniProt P42684)
T3 construct: purchased Thermo Fisher Scientific
T3 sequence (P42684 whole entry): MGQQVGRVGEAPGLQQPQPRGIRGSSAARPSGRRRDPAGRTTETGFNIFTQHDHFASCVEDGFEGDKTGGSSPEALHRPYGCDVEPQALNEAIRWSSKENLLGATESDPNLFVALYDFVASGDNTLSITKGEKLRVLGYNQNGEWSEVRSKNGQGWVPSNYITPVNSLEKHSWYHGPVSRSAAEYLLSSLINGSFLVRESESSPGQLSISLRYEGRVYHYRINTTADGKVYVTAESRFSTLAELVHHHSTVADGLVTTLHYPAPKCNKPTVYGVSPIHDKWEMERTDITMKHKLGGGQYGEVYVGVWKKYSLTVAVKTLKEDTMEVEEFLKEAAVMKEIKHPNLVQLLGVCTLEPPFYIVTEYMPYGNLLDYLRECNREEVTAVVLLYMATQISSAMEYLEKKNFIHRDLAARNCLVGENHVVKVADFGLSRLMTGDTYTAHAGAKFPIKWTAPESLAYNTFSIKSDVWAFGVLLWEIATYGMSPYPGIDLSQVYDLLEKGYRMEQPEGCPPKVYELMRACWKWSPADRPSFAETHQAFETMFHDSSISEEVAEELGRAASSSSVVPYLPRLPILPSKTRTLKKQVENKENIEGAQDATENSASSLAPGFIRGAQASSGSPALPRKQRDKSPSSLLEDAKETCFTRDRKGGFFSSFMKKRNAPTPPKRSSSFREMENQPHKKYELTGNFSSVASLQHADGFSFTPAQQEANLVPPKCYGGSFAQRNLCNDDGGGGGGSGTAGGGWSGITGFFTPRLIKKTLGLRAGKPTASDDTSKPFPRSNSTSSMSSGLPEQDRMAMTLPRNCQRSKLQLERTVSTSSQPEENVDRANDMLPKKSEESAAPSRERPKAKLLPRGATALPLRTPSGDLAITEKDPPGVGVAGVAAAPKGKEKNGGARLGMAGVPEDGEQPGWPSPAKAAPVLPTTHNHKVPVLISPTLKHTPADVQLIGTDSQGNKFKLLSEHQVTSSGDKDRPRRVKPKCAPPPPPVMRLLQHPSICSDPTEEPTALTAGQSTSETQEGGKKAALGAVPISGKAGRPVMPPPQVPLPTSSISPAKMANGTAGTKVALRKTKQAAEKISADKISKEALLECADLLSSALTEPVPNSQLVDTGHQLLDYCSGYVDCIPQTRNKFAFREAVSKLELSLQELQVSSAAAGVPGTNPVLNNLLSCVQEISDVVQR
Method in brief: as §1

[4] = biological target: T4, LRRK2 G2019S (Homo sapiens, UniProt Q5S007, G2019S)
T4 construct: purchased Thermo Fisher Scientific
T4 sequence (Q5S007 970-2527 G2019S limits assumed): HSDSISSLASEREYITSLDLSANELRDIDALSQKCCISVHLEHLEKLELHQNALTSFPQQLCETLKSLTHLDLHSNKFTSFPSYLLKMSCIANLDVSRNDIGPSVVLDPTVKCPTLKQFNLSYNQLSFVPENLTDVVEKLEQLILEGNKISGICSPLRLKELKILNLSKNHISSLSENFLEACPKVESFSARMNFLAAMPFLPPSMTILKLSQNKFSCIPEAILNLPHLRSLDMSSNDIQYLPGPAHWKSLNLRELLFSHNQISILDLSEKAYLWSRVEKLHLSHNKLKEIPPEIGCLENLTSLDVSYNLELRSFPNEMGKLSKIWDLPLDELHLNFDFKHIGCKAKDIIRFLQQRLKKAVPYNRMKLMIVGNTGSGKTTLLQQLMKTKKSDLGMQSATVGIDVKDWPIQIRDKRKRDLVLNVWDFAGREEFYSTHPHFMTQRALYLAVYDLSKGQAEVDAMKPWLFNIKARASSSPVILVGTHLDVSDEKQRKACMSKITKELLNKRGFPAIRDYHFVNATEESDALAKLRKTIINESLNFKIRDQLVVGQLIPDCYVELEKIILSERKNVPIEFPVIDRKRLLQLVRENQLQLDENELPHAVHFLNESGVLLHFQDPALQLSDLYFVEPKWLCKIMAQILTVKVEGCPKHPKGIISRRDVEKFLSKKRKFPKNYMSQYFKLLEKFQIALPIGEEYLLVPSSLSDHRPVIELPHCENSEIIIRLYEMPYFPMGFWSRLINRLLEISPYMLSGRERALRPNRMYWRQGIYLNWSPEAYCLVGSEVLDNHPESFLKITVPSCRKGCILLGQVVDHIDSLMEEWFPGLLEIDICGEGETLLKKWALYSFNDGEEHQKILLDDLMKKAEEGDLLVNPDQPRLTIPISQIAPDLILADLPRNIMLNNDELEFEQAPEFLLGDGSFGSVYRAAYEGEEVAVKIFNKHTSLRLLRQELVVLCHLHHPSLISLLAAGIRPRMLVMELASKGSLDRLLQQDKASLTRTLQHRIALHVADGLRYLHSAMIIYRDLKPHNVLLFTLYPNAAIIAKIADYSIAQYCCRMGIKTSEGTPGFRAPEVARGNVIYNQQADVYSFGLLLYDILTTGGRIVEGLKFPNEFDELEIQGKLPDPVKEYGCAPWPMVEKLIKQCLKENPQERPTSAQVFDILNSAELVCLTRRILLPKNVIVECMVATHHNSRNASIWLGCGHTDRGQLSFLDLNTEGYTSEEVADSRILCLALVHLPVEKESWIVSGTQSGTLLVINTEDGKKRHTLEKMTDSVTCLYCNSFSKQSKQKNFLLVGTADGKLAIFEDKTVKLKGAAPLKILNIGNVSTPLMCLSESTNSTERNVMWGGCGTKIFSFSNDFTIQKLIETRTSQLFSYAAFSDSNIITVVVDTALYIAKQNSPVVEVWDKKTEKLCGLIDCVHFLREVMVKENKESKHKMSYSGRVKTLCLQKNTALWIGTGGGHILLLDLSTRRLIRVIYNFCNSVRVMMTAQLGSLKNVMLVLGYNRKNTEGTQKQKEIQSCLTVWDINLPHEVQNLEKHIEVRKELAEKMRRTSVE
Method in brief: as §1

[5] = biological target: T5, CSNK1A1 (CK1 alpha 1) (Homo sapiens, UniProt P48729)
T5 construct: purchased Thermo Fisher Scientific
T5 sequence (P48729 whole entry): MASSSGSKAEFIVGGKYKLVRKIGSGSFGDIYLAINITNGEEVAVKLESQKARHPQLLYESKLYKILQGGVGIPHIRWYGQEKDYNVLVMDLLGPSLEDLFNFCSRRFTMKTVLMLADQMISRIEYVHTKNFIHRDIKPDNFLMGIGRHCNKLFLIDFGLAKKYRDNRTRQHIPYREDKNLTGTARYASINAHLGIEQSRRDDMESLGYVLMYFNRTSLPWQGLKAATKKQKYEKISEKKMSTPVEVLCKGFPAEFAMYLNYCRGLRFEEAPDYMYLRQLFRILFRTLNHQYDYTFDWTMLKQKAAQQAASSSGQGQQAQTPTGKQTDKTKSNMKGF
Method in brief: as §1

[6] = biological target: T6, HIPK4 (Homo sapiens, UniProt Q8NE63)
T6 construct: purchased Thermo Fisher Scientific
T6 sequence (Q8NE63 1-616): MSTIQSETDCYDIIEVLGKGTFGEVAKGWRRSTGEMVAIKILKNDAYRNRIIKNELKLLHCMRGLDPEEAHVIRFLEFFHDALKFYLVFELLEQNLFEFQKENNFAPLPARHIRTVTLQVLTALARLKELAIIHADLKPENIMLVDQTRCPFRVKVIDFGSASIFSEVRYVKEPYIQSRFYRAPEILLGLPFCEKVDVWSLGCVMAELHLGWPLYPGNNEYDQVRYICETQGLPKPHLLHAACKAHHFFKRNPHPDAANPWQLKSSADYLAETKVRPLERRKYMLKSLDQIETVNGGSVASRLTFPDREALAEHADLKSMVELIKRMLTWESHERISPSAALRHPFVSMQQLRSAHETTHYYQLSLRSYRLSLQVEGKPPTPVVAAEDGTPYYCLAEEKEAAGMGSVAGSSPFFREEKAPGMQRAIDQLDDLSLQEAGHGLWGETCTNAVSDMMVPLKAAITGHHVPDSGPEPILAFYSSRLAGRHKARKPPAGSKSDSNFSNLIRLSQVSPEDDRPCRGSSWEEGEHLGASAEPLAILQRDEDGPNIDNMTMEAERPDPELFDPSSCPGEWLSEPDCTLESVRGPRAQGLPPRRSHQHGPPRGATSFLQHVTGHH
Method in brief: as §1

Compound	inhibition at 1 µM [1] [%]	inhibition at 10 µM [1] [%]	inhibition at 1 µM [2] [%]	inhibition at 10 µM [2] [%]	inhibition at 1 µM [3] [%]	inhibition at 10 µM [3] [%]	inhibition at 1 µM [4] [%]	inhibition at 10 µM [4] [%]	inhibition at 1 µM [5] [%]	inhibition at 10 µM [5] [%]	inhibition at 1 µM [6] [%]	inhibition at 10 µM [6] [%]
COc1ccc2c(c1OC)c(=O)n1c3ccc(O)cc3c3ccnc2c31 [MW01, 5-Hydroxy-10,11-dimethoxy-9H-benzo[c]indolo[3,2,1-ij][1,5]naphthyridin-9-one]	8	18	18	10	9	21	90	93	5	17	42	62
COc1ccc2cc3c(N)nn(C(=O)c4cccc(N(C)C)c4)c3nc2c1 [MW05, (3-Amino-7-methoxypyrazolo[3,4-b]quinolin-1-yl)-[3-(dimethylamino)phenyl]methanone]	7	-5	16	-4	5	2	-2	16	2	1	12	8
